Each block holds one molecule with its values, some of them ahead of it.
Tests used:
[1] = tested on: CKO model-derived glioma cell lines 1483 and 1877; assay: Proliferation rate of CKO model-derived glioma cell lines (EdU incorporation assay); format: cell-based, mouse; conditions: for proliferation of tumor OPCs: 200 μM glutamate, 200 μM GABA or 15 mM KCl vs control, cell lines 1483 and 1877
Source text: Cell lines were authenticated by tdTomato marker when histology analyzing. All cell lines tested negative for mycoplasma contamination.

local resident microglia = assay: Granulocytes and macrophage/microglia in the brain under clozapine (CD15, Iba1, CD68 staining); format: in vivo, mouse
Description: All mouse frozen tissues were cryo-sectioned into 20 μm thickness. For routine staining, the slides were fixed in ice-cold 2% PFA for 15 minutes. After washed in 1×PBS (3 times, 10 minutes each), the slides were briefly rinsed with 1×PBT (0.3% Triton X-100 in 1×PBS) and then incubated with the blocking solution (5% normal donkey serum, 0.3% Triton X-100, 0.1% NaN3 in 1×PBS) for 20 minutes. The slides mounted with primary antibodies were then incubated in the wet box at 4° C. overnight. Next day, the slides were washed in 1×PBT (4 times, 10 minutes each) before incubated with secondary antibodies (diluted in 1×PBT) in foil-wrapped wet box at 4° C. overnight. The third day, the slides were washed in 1×PBT (4 times, 10 minutes each) and DAPI solution (25 ng/ml in 1×PBS, 20 minutes). After washing with 1×PBS for 5 minutes, the slides were mounted with the mounting solution (65% glycerol in 1×PBS) and covered with coverslips.

blood-brain-barrier = assay: Evans Blue dye assay of blood-brain barrier integrity; format: in vivo, mouse; conditions: WT mice, clozapine by drinking water or i.p.
Description: The protocol was adapted from Ludewig et al.^42 with some modifications. Mice were administrated with 200 μL Evans Blue (2%) by i.p injection. After six hours of EB injection, the mice were anaesthetized and then perfused with cold PBS. 100 mg tissue for each sample from multiple organs (as indicated in the FIG. 9g) was collected in 500 μL PBS and ground into tissue homogenate. 500 μL formamide was then add to the homogenate before being incubated in the 55° C. for 24 hours. After centrifugation, supernatants were collected for optical density detecting at 620 nm.

peripheral immune cells = assay: Immune cells in peripheral blood under clozapine (FACS); format: in vivo, mouse; conditions: clozapine by oral or i.p. administration, three weeks
Description: Blood was collected by intracardial puncture from anaesthetized mice into heparinized 1 ml syringes. Heparin was used in a range of 30 units/ml. Red blood cells were lysed in ACK lysing buffer (Gibco, A10492) at room temperature for 5 min. Cell suspensions were spun down at 300 g for 5 min. The cell pellet was then washed with Hank's balanced salt solution (HBSS) and spun for 5 min at 300 g. The cells in the pellet (1-2×10^5 cells) were used in fluorescence assays. Antibodies used for flow cytometry were directed against the following mouse antigens: Pacific Blue anti-mouse CD45(30-F11), PE anti-mouse Ly-6G(1A8), PerCP/Cyanine5.5 anti-mouse CD11c, FITC anti-mouse CD19(1D3), APC anti-mouse CD3(17A2), APC/Cyanine7 anti-mouse/human CD11b(M1/70) from Biolegend. Dilution: 1: 200.

[2] = tested on: glioma cells from the CKO model; assay: RNA-Seq of glioma cells co-cultured with primary OB neurons and stimulated by IGF-1; format: cell-based, mouse; conditions: co-cultures stimulated by 20 ng/mL IGF-1
Description: OBs were dissected from P2-3 mouse pups and digested in 10 mL papain solution (1×EBSS (Sigma, E7510), 0.5 mM EDTA, 10 mM HEPES, 26 mM NaHCO3, 22.5 mM D(+)-glucose, 0.16 mg/mL L-cycteine, 20 units/mL papain (Worthington Biochem, LS003126), 250 μg/mL DNase I (Sigma, DN-25) in dd-water) for 30 min at 37° C. Papain solution was discarded and the tissue was triturated with 2 mL Diluted Trypsin Inhibitor Buffer (1×EBSS (Sigma, E7510), 10 mM HEPES, 26 mM NaHCO3, 1× ovomucoid (Worthington Biochem, LS003086), 250 μg/mL DNase I (Sigma, DN-25), 1 mg/mL BSA (equitech-bio, BAH62) in dd-water) by 1 mL pipette and was allowed to settle for 2 min. 1 mL upper cell suspension was carefully collected and additional 1 mL Diluted Trypsin Inhibitor Buffer was add to the tissue. The process was repeated until all Diluted Trypsin Inhibitor Buffer was consumed. […]
For sequencing of tumor cells from co-cultures, raw data was filtered by removing adapter with Cutadapt (Version 3.4) and quality control (not lower than 25). Clean reads were aligned to the reference genome Mus_musculus.GRCm39.dna.primary_assembly.fa (39.103) from Ensembl by STAR (Version 2.7.9a). Read counts were calculated by featureCounts (Version 2.0.1). The feature was selected as Exon, and only reads with mapping quality score greater than 25 were retained. […]

Molecule: O=[N+]([O-])c1cc2nc(O)c(O)nc2cc1[N+](=O)[O-] [DQNX]
IGF1-promoted proliferation of tumor OPCs ([1]; 20 ng/mL IGF-1 plus 10 μM AMPA-receptor antagonist vs IGF-1 alone): did not affect

Molecule: NCCCC(=O)O [GABA]
proliferation of tumor OPCs [1]: did not affect

Molecule: N[C@@H](CCC(=O)O)C(=O)O [Glutamate]
proliferation of tumor OPCs [1]: did not affect

number or activation of local resident microglia (local resident microglia; CKO model regardless of tumor stage, Iba1+ and CD68+ Iba1+): not affected
granulocytes (CD15) in the brain parenchyma (local resident microglia; WT, Omp-hM3Dq, Omp-hM4Di and CKO tumor mice with clozapine treatment): barely any granulocytes could be found
integrity of the blood-brain-barrier (blood-brain-barrier): did not affect the integrity
number of granulocytes in peripheral blood (peripheral immune cells): slightly but significantly reduced
number of macrophages in peripheral blood (peripheral immune cells): increased
Molecule: CN1CCN(C2=Nc3cc(Cl)ccc3Nc3ccccc32)CC1 [clozapine]

Molecule: [Cl-].[K+] [potassium chloride]
proliferation of tumor OPCs [1]: did not affect

Molecule: insulin-like growth factor-1 [IGF-1]
expression of RTK downstream genes such as Egr3/4 and Fosl2 [2]: significant upregulation
expression of neurotransmitter receptor genes including AMPARs in tumor OPCs [2]: did not affect the expression
proliferation of tumor OPCs in vitro ([1]; 20 ng/mL IGF-1, glioma cell lines 1483 and 1877): significantly stimulated the proliferation
